# pIC50: −log10 of the molar value.
# What was measured:
# [1] = system: Escherichia coli; assay: In vitro antibacterial activity against isolated Escherichia coli DC2; assay type: functional
# [2] = system: Moraxella catarrhalis; assay: In vitro antibacterial activity against isolated Moraxella catarrhalis RA21; assay type: functional
# [3] = biological target: T1, Peptide deformylase (Escherichia coli, UniProt Q9JN24); assay: Inhibitory activity against isolated Escherichia coli peptidyl deformylase (PDF) enzyme containing iron.
# T1 sequence (Q9JN24 whole entry): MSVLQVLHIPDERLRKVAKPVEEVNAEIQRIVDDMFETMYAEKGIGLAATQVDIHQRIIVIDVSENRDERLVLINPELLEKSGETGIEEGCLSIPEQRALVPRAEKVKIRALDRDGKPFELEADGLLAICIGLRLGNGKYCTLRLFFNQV
# [4] = system: Bacillus subtilis; assay: In vitro antibacterial activity against Bacillus subtilis ATCC 585969.; assay type: functional
# [5] = system: Chlamydia pneumoniae; assay: In vitro antibacterial activity against Chlamydia pneumoniae AR-39.; assay type: functional
# [6] = system: Escherichia coli; assay: In vitro antibacterial activity against Escherichia coli ATCC 25922.; assay type: functional
# [7] = system: Enterococcus faecalis; assay: In vitro antibacterial activity against Enterococcus faecalis ATCC 29212.; assay type: functional
# [8] = system: Enterococcus faecium; assay: In vitro antibacterial activity against Enterococcus faecium vanA E25_1.; assay type: functional
# [9] = biological target: T2, Endothelin-converting enzyme 1 (Homo sapiens, UniProt P42892); assay: Inhibitory activity against Endothelin-converting enzyme 1
# T2 sequence (P42892 whole entry): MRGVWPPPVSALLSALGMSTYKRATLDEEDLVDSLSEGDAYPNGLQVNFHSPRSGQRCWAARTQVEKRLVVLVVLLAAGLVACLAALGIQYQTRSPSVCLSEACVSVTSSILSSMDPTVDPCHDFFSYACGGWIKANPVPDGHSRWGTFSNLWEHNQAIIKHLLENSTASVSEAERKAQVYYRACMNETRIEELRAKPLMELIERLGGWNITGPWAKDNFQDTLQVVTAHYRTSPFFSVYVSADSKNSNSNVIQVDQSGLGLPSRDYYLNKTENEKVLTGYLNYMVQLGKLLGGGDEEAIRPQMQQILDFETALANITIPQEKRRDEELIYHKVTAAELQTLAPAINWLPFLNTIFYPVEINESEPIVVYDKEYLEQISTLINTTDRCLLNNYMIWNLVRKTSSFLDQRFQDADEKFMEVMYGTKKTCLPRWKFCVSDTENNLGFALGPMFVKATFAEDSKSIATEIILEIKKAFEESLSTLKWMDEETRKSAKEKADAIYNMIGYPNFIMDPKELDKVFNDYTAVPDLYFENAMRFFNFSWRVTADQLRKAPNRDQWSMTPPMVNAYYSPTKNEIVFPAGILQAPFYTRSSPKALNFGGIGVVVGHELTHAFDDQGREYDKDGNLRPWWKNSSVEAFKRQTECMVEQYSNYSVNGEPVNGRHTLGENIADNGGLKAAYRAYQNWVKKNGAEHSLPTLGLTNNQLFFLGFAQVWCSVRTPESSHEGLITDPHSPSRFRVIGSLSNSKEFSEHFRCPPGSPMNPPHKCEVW
# [10] = system: Haemophilus influenzae; assay: In vitro antibacterial activity against Haemophilus influenzae 11.; assay type: functional
# [11] = biological target: T3, Interstitial collagenase (Homo sapiens, UniProt P03956); assay: Inhibition of Matrix metalloprotease-1
# T3 sequence (P03956 whole entry): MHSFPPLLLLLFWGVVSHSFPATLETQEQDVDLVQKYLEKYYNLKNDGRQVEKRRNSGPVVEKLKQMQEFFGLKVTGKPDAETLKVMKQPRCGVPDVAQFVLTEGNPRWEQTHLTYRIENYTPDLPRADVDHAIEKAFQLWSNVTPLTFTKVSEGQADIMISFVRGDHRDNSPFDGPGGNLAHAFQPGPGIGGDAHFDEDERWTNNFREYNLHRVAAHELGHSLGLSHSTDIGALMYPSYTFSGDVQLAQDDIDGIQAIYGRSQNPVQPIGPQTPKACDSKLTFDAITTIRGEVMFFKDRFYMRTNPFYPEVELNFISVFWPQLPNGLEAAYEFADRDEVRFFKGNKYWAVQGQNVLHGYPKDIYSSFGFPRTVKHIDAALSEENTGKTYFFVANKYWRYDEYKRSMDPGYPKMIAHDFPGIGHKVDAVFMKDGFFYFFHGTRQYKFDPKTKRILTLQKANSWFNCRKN
# [12] = system: Mycoplasmoides pneumoniae; assay: In vitro antibacterial activity against Mycoplasma pneumoniae ATCC 29342.; assay type: functional
# [13] = biological target: T4, Neprilysin (Rattus norvegicus, UniProt P07861); assay: Inhibitory activity against neutral endopeptidase enzyme (NEP).
# T4 sequence (P07861 whole entry): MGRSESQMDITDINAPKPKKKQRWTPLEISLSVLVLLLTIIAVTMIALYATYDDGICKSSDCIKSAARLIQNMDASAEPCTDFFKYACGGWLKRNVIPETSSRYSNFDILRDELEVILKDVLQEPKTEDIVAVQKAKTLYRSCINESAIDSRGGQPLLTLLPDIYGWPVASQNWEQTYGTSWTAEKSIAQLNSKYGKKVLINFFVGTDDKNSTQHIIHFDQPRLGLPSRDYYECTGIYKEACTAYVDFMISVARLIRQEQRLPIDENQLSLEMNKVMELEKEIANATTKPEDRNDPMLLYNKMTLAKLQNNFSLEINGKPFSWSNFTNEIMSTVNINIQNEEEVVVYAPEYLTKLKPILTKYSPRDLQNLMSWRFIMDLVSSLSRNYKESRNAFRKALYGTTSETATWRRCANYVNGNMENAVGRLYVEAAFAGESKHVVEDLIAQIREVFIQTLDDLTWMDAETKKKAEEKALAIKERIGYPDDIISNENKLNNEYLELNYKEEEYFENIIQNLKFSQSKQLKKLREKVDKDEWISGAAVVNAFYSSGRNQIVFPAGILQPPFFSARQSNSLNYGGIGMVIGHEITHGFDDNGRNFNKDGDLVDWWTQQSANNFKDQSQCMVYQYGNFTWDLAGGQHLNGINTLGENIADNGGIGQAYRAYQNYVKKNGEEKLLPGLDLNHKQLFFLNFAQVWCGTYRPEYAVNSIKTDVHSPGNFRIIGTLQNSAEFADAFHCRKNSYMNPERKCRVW
# [14] = Inhibitory activity against PDF isolated from Bacillus subtilis
# [15] = system: Pseudomonas aeruginosa; assay: In vitro antibacterial activity against Pseudomonas aeruginosa ATCC 27853.; assay type: functional
# [16] = system: Staphylococcus aureus; assay: In vitro antibacterial activity against Staphylococcus aureus ATCC 25923.; assay type: functional
# [17] = system: Streptococcus pneumoniae; assay: In vitro antibacterial activity against Streptococcus pneumoniae ATCC 49619.; assay type: functional
# [18] = system: Stenotrophomonas maltophilia; assay: In vitro antibacterial activity against Stenotrophomonas maltophilia 1AC739.; assay type: functional
# [19] = system: Streptococcus pneumoniae; assay: In vitro antibacterial activity against Streptococcus pneumoniae 1/1 (penicillin resistant).; assay type: functional
# [20] = biological target: Angiotensin-converting enzyme (Homo sapiens, UniProt P12821)
# Chain of Angiotensin-converting enzyme (P12821 whole entry): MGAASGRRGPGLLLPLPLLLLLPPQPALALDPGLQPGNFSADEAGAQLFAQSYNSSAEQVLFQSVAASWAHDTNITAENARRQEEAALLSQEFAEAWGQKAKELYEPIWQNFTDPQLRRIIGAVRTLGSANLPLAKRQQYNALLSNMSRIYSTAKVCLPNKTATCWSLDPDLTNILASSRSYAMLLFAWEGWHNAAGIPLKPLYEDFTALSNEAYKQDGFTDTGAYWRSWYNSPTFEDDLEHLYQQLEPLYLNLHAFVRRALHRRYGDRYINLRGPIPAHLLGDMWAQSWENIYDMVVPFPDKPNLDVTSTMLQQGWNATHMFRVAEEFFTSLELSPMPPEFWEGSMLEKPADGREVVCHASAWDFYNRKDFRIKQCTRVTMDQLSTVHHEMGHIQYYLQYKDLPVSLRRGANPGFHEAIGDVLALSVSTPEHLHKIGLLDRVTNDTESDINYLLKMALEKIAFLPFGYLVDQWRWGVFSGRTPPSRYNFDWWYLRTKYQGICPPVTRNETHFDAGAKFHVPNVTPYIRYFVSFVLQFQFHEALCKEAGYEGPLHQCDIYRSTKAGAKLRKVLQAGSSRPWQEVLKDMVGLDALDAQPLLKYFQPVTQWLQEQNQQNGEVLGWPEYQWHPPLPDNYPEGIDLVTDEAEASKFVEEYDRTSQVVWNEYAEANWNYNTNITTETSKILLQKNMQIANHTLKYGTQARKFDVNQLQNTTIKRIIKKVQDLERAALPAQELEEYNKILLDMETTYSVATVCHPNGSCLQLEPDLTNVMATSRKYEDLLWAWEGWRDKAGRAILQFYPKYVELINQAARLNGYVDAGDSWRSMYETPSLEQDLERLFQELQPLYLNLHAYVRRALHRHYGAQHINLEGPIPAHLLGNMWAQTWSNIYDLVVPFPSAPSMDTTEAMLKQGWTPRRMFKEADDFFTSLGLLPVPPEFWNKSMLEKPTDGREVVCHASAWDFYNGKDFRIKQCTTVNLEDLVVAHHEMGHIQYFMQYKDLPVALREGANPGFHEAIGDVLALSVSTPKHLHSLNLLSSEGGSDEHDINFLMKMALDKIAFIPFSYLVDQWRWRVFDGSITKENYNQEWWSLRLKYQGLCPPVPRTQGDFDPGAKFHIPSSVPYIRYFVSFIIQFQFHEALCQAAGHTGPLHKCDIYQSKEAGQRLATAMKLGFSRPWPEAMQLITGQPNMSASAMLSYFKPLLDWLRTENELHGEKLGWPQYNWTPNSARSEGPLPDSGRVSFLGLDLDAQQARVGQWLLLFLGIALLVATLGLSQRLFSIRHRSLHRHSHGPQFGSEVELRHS
# [21] = system: peptide deformylase (Streptococcus pneumoniae); assay: Inhibitory activity against PDF isolated from Streptococcus pneumoniae
# [22] = biological target: Matrilysin (Homo sapiens, UniProt P09237); assay: Inhibition of matrilysin, Matrix metalloprotease-7
# Chain of Matrilysin (P09237 whole entry): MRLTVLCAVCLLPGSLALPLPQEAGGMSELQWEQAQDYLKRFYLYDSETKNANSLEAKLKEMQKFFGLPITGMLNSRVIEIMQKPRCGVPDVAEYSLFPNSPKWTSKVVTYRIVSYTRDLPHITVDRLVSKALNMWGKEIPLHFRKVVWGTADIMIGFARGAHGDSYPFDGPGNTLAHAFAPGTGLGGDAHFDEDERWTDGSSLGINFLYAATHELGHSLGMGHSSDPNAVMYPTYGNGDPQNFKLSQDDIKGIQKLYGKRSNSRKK
# [23] = biological target: Collagenase 3 (Homo sapiens, UniProt P45452); assay: Inhibition of Matrix metalloprotease-13
# [24] = biological target: Macrophage metalloelastase (Homo sapiens, UniProt P39900); assay: Inhibition of human Matrix metalloprotease-12
# Chain of Macrophage metalloelastase (P39900 whole entry): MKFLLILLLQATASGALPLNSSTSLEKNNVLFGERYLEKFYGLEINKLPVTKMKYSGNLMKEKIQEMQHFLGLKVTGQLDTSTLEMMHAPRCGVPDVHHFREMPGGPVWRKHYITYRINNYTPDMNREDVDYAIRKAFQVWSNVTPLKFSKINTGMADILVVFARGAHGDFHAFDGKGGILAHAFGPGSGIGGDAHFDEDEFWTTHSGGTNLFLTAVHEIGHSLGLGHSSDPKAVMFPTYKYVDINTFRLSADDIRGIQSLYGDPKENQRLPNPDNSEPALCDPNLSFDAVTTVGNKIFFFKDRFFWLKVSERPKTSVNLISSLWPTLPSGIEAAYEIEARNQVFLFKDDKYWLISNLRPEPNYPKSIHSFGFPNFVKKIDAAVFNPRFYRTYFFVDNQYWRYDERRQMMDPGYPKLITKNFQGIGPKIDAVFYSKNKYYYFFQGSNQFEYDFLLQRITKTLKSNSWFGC
# [25] = biological target: T4, Neprilysin; assay: Inhibitory activity against endopeptidase enzyme (NEP).
smiles,measurement,setting,value
CCCCC(CC(=O)NO)S(=O)(=O)c1ccc(NC(C)=O)cc1 (stereo not drawn),MIC,[1],16 µg/mL
same,MIC,[2],1 µg/mL
same,pIC50,[3],7.96
CCCCC(CC(=O)NO)[S+]([O-])c1ccccc1 (stereo not drawn),MIC,[4],0.25 µg/mL
same,MIC,[5],0.25 µg/mL
same,MIC,[6],32 µg/mL
same,MIC,[7],> 128 µg/mL
same,MIC,[1],1 µg/mL
same,MIC,[8],> 128 µg/mL
same,pIC50,[9],< 4.00
same,MIC,[10],1 µg/mL
same,pIC50,[11],7.03
same,MIC,[2],< 0.25 µg/mL
same,MIC,[12],0.25 µg/mL
same,pIC50,[13],5.59
same,pIC50,[14],7.34
same,MIC,[15],> 128 µg/mL
same,MIC,[16],16 µg/mL
same,MIC,[17],32 µg/mL
same,MIC,[18],< 0.25 µg/mL
same,MIC,[19],64 µg/mL
same,pIC50,[20],< 4.00
same,pIC50,[21],6.62
O=C(CC(c1ccccc1)S(=O)(=O)c1ccccc1)NO (stereo not drawn),MIC,[1],32 µg/mL
same,MIC,[2],8 µg/mL
same,pIC50,[3],6.80
CCCC(CC(=O)NO)S(=O)(=O)c1ccccc1 (stereo not drawn),MIC,[1],64 µg/mL
same,MIC,[2],4 µg/mL
same,pIC50,[3],6.80
CC(CC(=O)NO)S(=O)(=O)c1ccccc1 (stereo not drawn),MIC,[1],> 32 µg/mL
same,MIC,[2],> 32 µg/mL
CCCCC(CC(=O)NO)S(=O)(=O)c1ccc2ccccc2c1 (stereo not drawn),MIC,[1],8 µg/mL
same,pIC50,[9],3.35
same,pIC50,[22],5.82
same,pIC50,[23],8.05
same,pIC50,[11],7.15
same,pIC50,[24],7.89
same,MIC,[2],0.5 µg/mL
same,pIC50,[25],6.30
same,pIC50,[3],7.64
same,pIC50,[20],4.91
CCCC[C@H](CC(=O)NO)S(=O)(=O)c1ccccc1,MIC,[4],1 µg/mL
same,MIC,[5],0.5 µg/mL
same,MIC,[6],128 µg/mL
same,MIC,[1],2 µg/mL
same,pIC50,[9],< 4.00
same,MIC,[10],2 µg/mL
same,pIC50,[23],7.10
same,pIC50,[11],6.82
same,pIC50,[24],7.38
same,MIC,[2],< 0.25 µg/mL
same,MIC,[12],0.5 µg/mL
same,pIC50,[25],5.60
same,MIC,[15],> 128 µg/mL
same,MIC,[16],128 µg/mL
same,MIC,[17],128 µg/mL
same,pIC50,[20],4.47
O=C(CC(c1ccc2c(c1)OCO2)S(=O)(=O)c1ccccc1)NO (stereo not drawn),MIC,[1],16 µg/mL
same,MIC,[2],1 µg/mL
CCCCC(CC(=O)NO)[S+]([O-])c1cccc(OC)c1 (stereo not drawn),MIC,[1],4 µg/mL
same,MIC,[2],0.25 µg/mL
same,pIC50,[3],7.03
CCCCC(CC(=O)NO)S(=O)(=O)c1cccc(OC)c1 (stereo not drawn),MIC,[1],16 µg/mL
same,MIC,[2],2 µg/mL
same,pIC50,[3],7.07
CCCC[C@H](C(O)C(=O)NO)[S+]([O-])c1ccccc1 (stereo partly drawn),MIC,[1],1 µg/mL
same,MIC,[2],< 0.06 µg/mL
CCCCC(CC(=O)NO)S(=O)(=O)Cc1ccccc1 (stereo not drawn),MIC,[1],128 µg/mL
same,MIC,[2],16 µg/mL
same,pIC50,[3],6.72
CCCCC(CC(=O)NO)[S+]([O-])c1ccc2ccccc2c1 (stereo not drawn),MIC,[1],2 µg/mL
same,MIC,[2],< 0.25 µg/mL
same,pIC50,[3],7.19
